Counter-ions that a name gives are not always drawn.

For the first assay, the target named is T1, human V1a receptor (Homo sapiens, UniProt P37288).
T1 construct: expressed in transfected cells; host or cells: HEK293 cells, transiently transfected; membranes prepared
T1 sequence (P37288 whole entry): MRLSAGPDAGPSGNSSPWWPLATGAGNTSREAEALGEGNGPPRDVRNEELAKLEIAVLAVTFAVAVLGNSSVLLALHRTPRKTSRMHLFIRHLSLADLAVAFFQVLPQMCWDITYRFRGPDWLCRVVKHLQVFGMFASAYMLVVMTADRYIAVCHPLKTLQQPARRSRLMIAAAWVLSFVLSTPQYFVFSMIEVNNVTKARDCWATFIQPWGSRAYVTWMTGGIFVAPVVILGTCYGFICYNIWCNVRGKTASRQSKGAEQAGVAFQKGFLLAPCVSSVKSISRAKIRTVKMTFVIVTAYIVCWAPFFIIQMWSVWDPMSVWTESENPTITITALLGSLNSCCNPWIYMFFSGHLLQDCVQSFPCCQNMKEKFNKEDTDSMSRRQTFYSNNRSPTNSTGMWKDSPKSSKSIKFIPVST
In words: human V1a receptor binding (3H-Vasopressin SPA, HEK293 membranes). The note with it: membranes of HEK293 cells transiently transfected with human V1a receptor, Ki by Cheng-Prussoff. The protocol:
The human V1a receptor was cloned by RT-PCR from total human liver RNA. The coding sequence was subcloned in an expression vector after sequencing to confirm the identity of the amplified sequence. […] Cell membranes were prepared from HEK293 cells transiently transfected with the expression vector and grown in 20 liter fermenters with the following protocol.
50 g of cells are resuspended in 30 ml freshly prepared ice cold Lysis buffer (50 mM HEPES, 1 mM EDTA, 10 mM magnesium dichloride adjusted to pH=7.4+complete cocktail of protease inhibitor (Roche Diagnostics)). Homogenized with Polytron for 1 min and sonicated on ice for 2×2 minutes at 80% intensity (Vibracell sonicator). The preparation is centrifuged 20 min at 500 g at 4° C., the pellet is discarded and the supernatant centrifuged 1 hour at 43,000 g at 4° C. (19,000 rpm). The pellet is resuspended in 12.5 ml Lysis buffer+12.5 ml sucrose 20% and homogenized using a Polytron for 1-2 min. The protein concentration is determined by the Bradford method and aliquots are stored at −80° C. until use. For binding studies 60 mg Yttrium silicate SPA beads (Amersham®) are mixed with an aliquot of membrane in binding buffer (50 mM Tris, 120 mM sodium chloride, 5 mM potassium chloride, 2 mM calcium dichloride, 10 mM magnesium dichloride) for 15 minutes with mixing. 50 μl of bead/membrane mixture is then added to each well of a 96 well plate, followed by 50 μl of 4 nM 3H-Vasopressin (American Radiolabeled Chemicals). For total binding measurement 100 μl of binding buffer are added to the respective wells, for non-specific binding 100 μl of 8.4 mM cold vasopressin and for compound testing 100 μl of a serial dilution of each compound in 2% dimethyl sulfoxide. The plate is incubated 1 h at room temperature, centrifuged 1 min at 1000 g and counted on a Packard Top-Count. Non-specific binding counts are subtracted from each well and data is normalized to the maximum specific binding set at 100%. To calculate an IC50 the curve is fitted using a non-linear regression model (XLfit) and the Ki is calculated using the Cheng-Prussoff equation.
For the compound `Cc1cc([C@H]2CC[C@H](c3nnc4n3-c3ccc(Cl)cc3CN(C(C)C)C4)CC2)no1` [Example 26, trans-8-Chloro-5-isoproyl-1-[4-(5-methyl-isoxazol-3-yl)-cyclohexyl]-5,6-dihydro-4H-2,3,5,10b-tetraaza-benzo[e]azulene], the “pKi (hV1a)” value is recorded as 9.45.

Staying with this assay, now noted: membranes of HEK293 cells transiently transfected with human V1a receptor, Ki by Cheng-Prussoff, read-out: pKi (hV1a) (converted).
As to `Clc1ccc2c(c1)CNCc1nnc([C@H]3CC[C@H](c4nccs4)CC3)n1-2` [Example 14, trans-8-Chloro-1-(4-thiazol-2-yl-cyclohexyl)-5,6-dihydro-4H-2,3,5,10b-tetraaza-benzo[e]azulene], the Ki is 28.2 nM. With `Cc1csc([C@H]2CC[C@H](c3nnc4n3-c3ccc(Cl)cc3CNC4)CC2)n1` [Example 17, trans-8-Chloro-1-[4-(4-methyl-thiazol-2-yl)-cyclohexyl]-5,6-dihydro-4H-2,3,5,10b-tetraaza-benzo[e]azulene], the Ki is 7.59 nM.

As for `Cc1nnc([C@H]2CC[C@H](c3nnc4n3-c3ccc(Cl)cc3CN(C)C4)CC2)o1` [Example 65, trans-8-Chloro-5-methyl-1-[4-(5-methyl-[1,3,4]oxadiazol-2-yl)-cyclohexyl]-5,6-dihydro-4H-2,3,5,10b-tetraaza-benzo[e]azulene], the Ki is 15.8 nM. For the compound `Cc1nc([C@H]2CC[C@H](c3nnc4n3-c3ccc(Cl)cc3CNC4)CC2)oc1Cl` [Example 99, trans-8-Chloro-1-[4-(5-chloro-4-methyl-oxazol-2-yl)-cyclohexyl]-5,6-dihydro-4H-2,3,5,10b-tetraaza-benzo[e]azulene], the Ki was 5.37 nM. Same read-out and setting: under `CCc1nc([C@H]2CC[C@@H](c3nnc4n3-c3ccc(Cl)cc3CNC4)CC2)no1` [Example 89, cis-8-Chloro-1-[4-(5-ethyl-[1,2,4]oxadiazol-3-yl)-cyclohexyl]-5,6-dihydro-4H-2,3,5,10b-tetraaza-benzo[e]azulene hydrochloride] stands 2750 nM; under `Cc1cc([C@H]2CC[C@H](c3nnc4n3-c3ccc(Cl)cc3CN(S(C)(=O)=O)C4)CC2)no1` [Example 34, trans-8-Chloro-5-methanesulfonyl-1-[4-(5-methyl-isoxazol-3-yl)-cyclohexyl]-5,6-dihydro-4H-2,3,5,10b-tetraaza-benzo[e]azulene], 0.275 nM. On the same count and under the same terms, under `Cc1nc([C@H]2CC[C@H](c3nnc4n3-c3ccc(Cl)cc3CN(C(=O)OC(C)(C)C)C4)CC2)sc1Cl` [Example 101, trans-8-Chloro-1-[4-(5-chloro-4-methyl-thiazol-2-yl)-cyclohexyl]-4H,6H-2,3,5,10b-tetraaza-benzo[e]azulene-5-carboxylic acid tert-butyl ester] stands 1.29 nM; under `Clc1ccc2c(c1)CNCc1nnc([C@H]3CC[C@@H](n4cccn4)CC3)n1-2` [Example 113, cis-8-Chloro-1-(4-pyrazol-1-yl-cyclohexyl)-5,6-dihydro-4H-2,3,5,10b-tetraaza-benzo[e]azulene], 794 nM; under `CC(C)c1nc([C@H]2CC[C@@H](c3nnc4n3-c3ccc(Cl)cc3CN(C(=O)OC(C)(C)C)C4)CC2)no1` [Example 91, cis-8-Chloro-1-[4-(5-isopropyl-[1,2,4]oxadiazol-3-yl)-cyclohexyl]-4H,6H-2,3,5,10b-tetraaza-benzo[e]azulene-5-carboxylic acid tert-butyl ester], 34.7 nM. Same read-out and setting: the figure for `Cc1nnc([C@H]2CC[C@H](c3nnc4n3-c3ccc(Cl)cc3CNC4)CC2)o1` [Example 64, trans-8-Chloro-1-[4-(5-methyl-[1,3,4]oxadiazol-2-yl)-cyclohexyl]-5,6-dihydro-4H-2,3,5,10b-tetraaza-benzo[e]azulene] is 204 nM; for `Cc1nc([C@H]2CC[C@H](c3nnc4n3-c3ccc(Cl)cc3CN(C)C4)CC2)sc1C` [Example 106, trans-8-Chloro-1-[4-(4,5-dimethyl-thiazol-2-yl)-cyclohexyl]-5-methyl-5,6-dihydro-4H-2,3,5,10b-tetraaza-benzo[e]azulene] it is 2.29 nM. With `Cc1nc([C@H]2CC[C@H](c3nnc4n3-c3ccc(Cl)cc3CN(S(C)(=O)=O)C4)CC2)no1` [Example 81, trans-8-Chloro-5-methanesulfonyl-1-[4-(5-methyl-[1,2,4]oxadiazol-3-yl)-cyclohexyl]-5,6-dihydro-4H-2,3,5,10b-tetraaza-benzo[e]azulene], the Ki was 4.27 nM. On the same count and under the same terms, the figure for `Cc1cnc([C@H]2CC[C@H](c3nnc4n3-c3ccc(Cl)cc3CNC4)CC2)o1` [Example 8, trans-8-Chloro-1-[4-(5-methyl-oxazol-2-yl)-cyclohexyl]-5,6-dihydro-4H-2,3,5,10b-tetraaza-benzo[e]azulene] is 18.6 nM.

`CC(C)(C)OC(=O)N1Cc2cc(Cl)ccc2-n2c(nnc2[C@H]2CC[C@@H](c3noc4c3CCCC4)CC2)C1` [Example 57, cis-8-Chloro-1-[4-(4,5,6,7-tetrahydro-benzo[d]isoxazol-3-yl)-cyclohexyl]-4H,6H-2,3,5,10b-tetraaza-benzo[e]azulene-5-carboxylic acid tert-butyl ester]: the Ki was 46.8 nM. Same read-out and setting: the figure for `Cc1cc([C@H]2CC[C@H](c3nnc4n3-c3ccc(Cl)cc3CN(CC(F)F)C4)CC2)no1` [Example 28, trans-8-Chloro-5-(2,2-difluoro-ethyl)-1-[4-(5-methyl-isoxazol-3-yl)-cyclohexyl]-5,6-dihydro-4H-2,3,5,10b-tetraaza-benzo[e]azulene] is 0.603 nM. The same measure, in the same setting: the figure for `CCN1Cc2cc(Cl)ccc2-n2c(nnc2[C@H]2CC[C@H](c3cc(C)on3)CC2)C1` [Example 25, trans-8-Chloro-5-ethyl-1-[4-(5-methyl-isoxazol-3-yl)-cyclohexyl]-5,6-dihydro-4H-2,3,5,10b-tetraaza-benzo[e]azulene] is 1.74 nM; for `Cc1nc([C@H]2CC[C@H](c3nnc4n3-c3ccc(Cl)cc3CN(C3CCCC3)C4)CC2)no1` [Example 78, trans-8-Chloro-5-cyclopentyl-1-[4-(5-methyl-[1,2,4]oxadiazol-3-yl)-cyclohexyl]-5,6-dihydro-4H-2,3,5,10b-tetraaza-benzo[e]azulene] it is 5.89 nM; for `Cc1nc([C@H]2CC[C@H](c3nnc4n3-c3ccc(Cl)cc3CN(C(=O)OC(C)(C)C)C4)CC2)oc1C` [Example 10, trans-8-Chloro-1-[4-(4,5-dimethyl-oxazol-2-yl)-cyclohexyl]-4H,6H-2,3,5,10b-tetraaza-benzo[e]azulene-5-carboxylic acid tert-butyl ester] it is 0.525 nM.

In the case of `CC(C)(C)OC(=O)N1Cc2cc(Cl)ccc2-n2c(nnc2[C@H]2CC[C@H](c3noc4c3CCCC4)CC2)C1` [Example 54, trans-8-Chloro-1-[4-(4,5,6,7-tetrahydro-benzo[d]isoxazol-3-yl)-cyclohexyl]-4H,6H-2,3,5,10b-tetraaza-benzo[e]azulene-5-carboxylic acid tert-butyl ester], the Ki is 9.55 nM.

As to `Cc1cc([C@H]2CC[C@H](c3nnc4n3-c3ccc(Cl)cc3CN(C(=O)CO)C4)CC2)no1` [Example 32, trans-1-{8-Chloro-1-[4-(5-methyl-isoxazol-3-yl)-cyclohexyl]-4H,6H-2,3,5,10b-tetraaza-benzo[e]azulen-5-yl}-2-hydroxy-ethanone], the Ki is 2.88 nM. Still for that read-out and setting: under `Cc1coc([C@H]2CC[C@H](c3nnc4n3-c3ccc(Cl)cc3CNC4)CC2)n1` [Example 5, trans-8-Chloro-1-[4-(4-methyl-oxazol-2-yl)-cyclohexyl]-5,6-dihydro-4H-2,3,5,10b-tetraaza-benzo[e]azulene] stands 32.4 nM; under `Cc1nc([C@H]2CC[C@H](c3nnc4n3-c3ccc(Cl)cc3CNC4)CC2)sc1Cl` [Example 102, trans-8-Chloro-1-[4-(5-chloro-4-methyl-thiazol-2-yl)-cyclohexyl]-5,6-dihydro-4H-2,3,5,10b-tetraaza-benzo[e]azulene], 3.8 nM; under `Clc1ccc2c(c1)CNCc1nnc([C@H]3CC[C@H](c4ncco4)CC3)n1-2` [Example 2, trans-8-Chloro-1-(4-oxazol-2-yl-cyclohexyl)-5,6-dihydro-4H-2,3,5,10b-tetraaza-benzo[e]azulene], 53.7 nM. Still for that read-out and setting: under `Cc1cc(C)n([C@H]2CC[C@H](c3nnc4n3-c3ccc(Cl)cc3CNC4)CC2)n1` [Example 116, trans-8-Chloro-1-[4-(3,5-dimethyl-pyrazol-1-yl)-cyclohexyl]-5,6-dihydro-4H-2,3,5,10b-tetraaza-benzo[e]azulene] stands 72.4 nM. On the same count and under the same terms, the figure for `Cc1nc([C@H]2CC[C@H](c3nnc4n3-c3ccc(Cl)cc3CN(C(=O)OC(C)(C)C)C4)CC2)oc1Cl` [Example 98, trans-8-Chloro-1-[4-(5-chloro-4-methyl-oxazol-2-yl)-cyclohexyl]-4H,6H-2,3,5,10b-tetraaza-benzo[e]azulene-5-carboxylic acid tert-butyl ester] is 1.1 nM.
